22 molecules from patent publication EP4813993A1, “COMPOUND, PREPARATION METHOD THEREFOR, AND USE THEREOF” (Sichuan Kelun Pharmaceutical Research Institute Co., Ltd., priority 2023, dated 2025) can be followed below.

One test deals with T1, Nav1.8 channels (Homo sapiens, UniProt Q9Y5Y9).
T1 construct: expressed in transfected cells
T1 sequence (Q9Y5Y9 whole entry): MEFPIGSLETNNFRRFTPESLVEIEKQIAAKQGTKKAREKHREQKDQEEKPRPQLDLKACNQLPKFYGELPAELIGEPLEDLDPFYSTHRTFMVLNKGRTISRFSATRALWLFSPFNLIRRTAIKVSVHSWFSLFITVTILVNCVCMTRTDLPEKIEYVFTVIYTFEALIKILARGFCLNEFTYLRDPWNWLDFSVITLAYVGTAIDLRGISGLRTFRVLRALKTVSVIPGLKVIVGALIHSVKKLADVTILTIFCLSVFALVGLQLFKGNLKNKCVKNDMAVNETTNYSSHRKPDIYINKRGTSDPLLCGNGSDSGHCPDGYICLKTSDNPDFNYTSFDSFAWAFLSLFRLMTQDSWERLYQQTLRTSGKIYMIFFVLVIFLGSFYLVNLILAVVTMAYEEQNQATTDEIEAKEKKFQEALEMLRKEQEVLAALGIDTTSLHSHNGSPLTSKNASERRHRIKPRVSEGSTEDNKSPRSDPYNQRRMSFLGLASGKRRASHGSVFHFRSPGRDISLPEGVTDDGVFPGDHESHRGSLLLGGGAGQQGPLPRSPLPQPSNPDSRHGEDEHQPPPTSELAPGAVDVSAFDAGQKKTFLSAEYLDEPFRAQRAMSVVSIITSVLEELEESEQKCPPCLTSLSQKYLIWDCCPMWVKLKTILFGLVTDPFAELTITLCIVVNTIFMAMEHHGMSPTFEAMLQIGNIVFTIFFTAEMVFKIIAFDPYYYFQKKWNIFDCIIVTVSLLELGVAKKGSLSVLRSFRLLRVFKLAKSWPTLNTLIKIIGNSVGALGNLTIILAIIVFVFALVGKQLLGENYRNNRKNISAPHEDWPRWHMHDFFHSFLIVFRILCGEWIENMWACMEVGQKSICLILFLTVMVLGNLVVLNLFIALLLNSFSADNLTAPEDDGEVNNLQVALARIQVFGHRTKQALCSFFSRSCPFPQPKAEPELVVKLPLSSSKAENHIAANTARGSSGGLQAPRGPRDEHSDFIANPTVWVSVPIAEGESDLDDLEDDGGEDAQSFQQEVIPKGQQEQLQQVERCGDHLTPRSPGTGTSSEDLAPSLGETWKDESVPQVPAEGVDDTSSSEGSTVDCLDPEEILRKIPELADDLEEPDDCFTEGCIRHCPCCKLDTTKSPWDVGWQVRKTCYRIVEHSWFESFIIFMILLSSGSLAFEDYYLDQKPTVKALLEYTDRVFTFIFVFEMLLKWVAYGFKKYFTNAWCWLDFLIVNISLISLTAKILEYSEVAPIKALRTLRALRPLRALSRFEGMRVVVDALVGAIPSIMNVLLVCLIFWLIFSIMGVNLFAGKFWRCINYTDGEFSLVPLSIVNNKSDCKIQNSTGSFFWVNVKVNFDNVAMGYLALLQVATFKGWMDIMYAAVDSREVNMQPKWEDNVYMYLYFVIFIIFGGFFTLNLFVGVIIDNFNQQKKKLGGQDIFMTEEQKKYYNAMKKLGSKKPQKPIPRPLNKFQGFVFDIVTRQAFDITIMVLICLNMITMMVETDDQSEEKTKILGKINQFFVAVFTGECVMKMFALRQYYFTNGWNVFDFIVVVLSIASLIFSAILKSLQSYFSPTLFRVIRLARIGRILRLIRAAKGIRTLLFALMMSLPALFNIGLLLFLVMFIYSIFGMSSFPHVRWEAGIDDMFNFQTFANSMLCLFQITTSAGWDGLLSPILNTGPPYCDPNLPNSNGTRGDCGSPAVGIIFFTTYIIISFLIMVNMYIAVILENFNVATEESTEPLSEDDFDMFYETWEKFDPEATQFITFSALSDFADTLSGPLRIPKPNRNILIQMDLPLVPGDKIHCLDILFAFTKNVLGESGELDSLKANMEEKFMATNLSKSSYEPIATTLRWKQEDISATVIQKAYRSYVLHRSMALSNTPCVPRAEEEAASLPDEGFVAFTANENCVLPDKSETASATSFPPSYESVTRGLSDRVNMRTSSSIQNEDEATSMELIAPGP
The test is described as follows: Manual patch-clamp, current of stably overexpressed Nav1.8 channels (resting state voltage program). Format: cell-based.
Settings: not given
The method, then:
Experimental Example 1: Effects of test substances on current of stably overexpressed Nav1.8 channels monitored via manual patch-clamp technique
Test compounds were dissolved in dimethyl sulfoxide (DMSO).
The extracellular fluid was as follows: 140 mM NaCl, 3.5 mM KCl, 1 mM MgCl2•6H2O, 2 mM CaCl2•2H2O, 10 mM D-Glucose, 10 mM HEPES, 1.25 mM NaH2PO4•2H2O; the pH was adjusted to 7.4 with NaOH. The intracellular fluid was as follows: 50 mM CsCl, 10 mM NaCl, 10 mM HEPES, 60 mM CsF, 20 mM EGTA; the pH was adjusted to 7.2 with CsOH.
2. Experimental materials and instruments
• 1) patch-clamp amplifier: EPC 10 (HEKA) • 2) micromanipulator: MP225 (Sutter Instrument) • 3) inverted microscope: MF53 (Mshot) • 4) micropipette puller: P97 (Sutter Instrument) • 5) capillary glass tube: BF150-86-10 (Sutter Instrument)
3. Experimental procedures
• 1) After the compounds were prepared into solutions with specified concentrations, the solutions were sequentially added to the pipeline of the drug delivery system and labeled. • 2) The cell climbing coverslip was placed in the recording chamber, the appropriate cells were selected under the inverted microscope, and the position of the drug delivery tip was adjusted. • 3) A capillary glass tube was pulled into a suitable recording electrode using the micropipette puller, and then the electrode filled with the intracellular fluid was mounted in the microelectrode holder. The micromanipulator was adjusted under the inverted microscope to allow the recording electrode to contact the cell, and negative pressure was applied to the electrode to form a high-resistance seal. At this time, fast capacitance compensation was performed, and then the application of negative pressure was continued to break the cell membrane, forming a whole-cell recording mode. Finally, slow capacitance compensation was performed, and related parameters were recorded. • 4) After the cell current stabilized, administration was started. Each concentration of the drug was applied for five minutes or until the current stabilized before proceeding to monitor the next concentration. The drug solutions were administered via gravity-fed delivery, flowing through the recording chamber to act on the cells in an ascending order of concentration (from low to high). A peristaltic pump was employed for solution exchange in the recording process.
4 Test voltage program (resting state) and results
After the formation of the whole-cell seal, the cell voltage was clamped at -120 mV, followed by depolarization to 0 mV using a square-wave pulse with a duration of 50 ms to elicit Nav1.8 currents. This procedure was repeated every 20 s to monitor the maximum current induced by the square wave. After the current stabilized, the test compounds were administered. Once the response stabilized, the intensity of the current block was calculated.
On the technique in general: The patch-clamp technique gives a direct electrical read-out from membranes.
The term IC50 denotes the point on the concentration scale where inhibition reaches its midpoint. High values mean weaker potency in that assay, low ones greater potency in that assay. Consider `COc1c([C@@H]2C[C@](C)(C(F)(F)F)S[C@H]2C(=O)Nc2cccc(N=[N+]=[N-])c2)ccc(F)c1F` [a-29-A, (2R,3S,5R)-N-(3-azidophenyl)-3-(3,4-difluoro-2-methoxyphenyl)-5-methyl-5-(trifluoromethyl)tetrahydrothiophene-2-carboxamide], for which half-maximal inhibition (IC50) was put at 0.005 nM.

Molecule `COc1c([C@@H]2C[C@](C)(C(F)(F)F)S[C@H]2C(=O)Nc2cccc(B3OC(=O)CN(C)CC(=O)O3)c2)ccc(F)c1F` [a-35-A, (2R,3S,5R)-3-(3,4-difluoro-2-methoxyphenyl)-5-methyl-N-(3-(6-methyl-4,8-dioxo-1,3,6,2-diazaborinin-2-yl)phenyl)-5-(trifluoromethyl)tetrahydrothiophene-2-carboxamide] came in with an IC50 of 0.69 nM.

Still in this test, the particulars now being: concentration of 1 nM, 0.001 µM.
For `COc1c(C2CC(C)(C(F)(F)F)SC2C(=O)Nc2ccc(F)c(N=S(C)(C)=O)c2)ccc(F)c1F` (stereo not shown) [a-22, 3-(3,4-difluoro-2-methoxyphenyl)-N-(3-((dimethyl(oxo)-16-sulfonamido)amino)-4-fluorophenyl)-5-methyl-5-(trifluoromethyl)tetrahydrothiophene-2-carboxamide], the Inhibition rate (%) is on record as 80.7%.

The test is the same for the next values; noted with them: concentration of 1 nM, read-out: Inhibition rate %.
Usually inhibition stands for the change of the read-out against control, counted positive when it falls. For `COc1c([C@@H]2C[C@](C)(C(F)(F)F)S[C@H]2C(=O)Nc2ccc(F)c(CO)c2)ccc(F)c1F` [Compound 254-A, (2R,3S,5R)-3-(3,4-difluoro-2-methoxyphenyl)-N-(4-fluoro-3-(hydroxymethyl)phenyl)-5-methyl-5-(trifluoromethyl)tetrahydrothiophene-2-carboxamide], the inhibition at 0.001 µM was 76.8%.

Turning to `COc1c([C@@H]2C[C@](C)(C(F)(F)F)S[C@H]2C(=O)Nc2ccc3c(c2)B(O)NC3=O)ccc(F)c1F` [Compound a-2, (2R,3S,5R)-3-(3,4-difluoro-2-methoxyphenyl)-N-(1-hydroxy-3-oxo-2,3-dihydro-1H-benzo[c][1,2]azaborol-6-yl)-5-methyl-5-(trifluoromethyl)tetrahydrothiophene-2-carboxamide], the inhibition at 0.001 µM was determined as 83.9%.

Turning to `COc1c(C2CC(C)(C(F)(F)F)SC2C(=O)Nc2ccc(F)c(N=S(C)(C)=O)c2)ccc(F)c1F` (stereo not shown) [a-15], the inhibition at 0.001 µM turned out to be 70.9%.

Regarding `COc1c([C@@H]2C[C@](C)(C(F)(F)F)S[C@H]2C(=O)Nc2cn(S(=O)(=O)C3CC3)nc2C)ccc(F)c1F` [a-21-A, (2R,3S,5R)-N-(1-(cyclopropylsulfonyl)-3-methyl-1H-pyrazol-4-yl)-3-(3,4-difluoro-2-methoxyphenyl)-5-methyl-5-(trifluoromethyl)tetrahydrothiophene-2-carboxamide], the inhibition at 0.001 µM worked out at 84.6%.

For the molecule `COc1c([C@@H]2C[C@](C)(C(F)(F)F)S[C@H]2C(=O)Nc2ccc3c(c2)C(=O)NC3=O)ccc(F)c1F` [a-23-A, (2R,3S,5R)-3-(3,4-difluoro-2-methoxyphenyl)-N-(1,3-dioxoisoindol-5-yl)-5-methyl-5-(trifluoromethyl)tetrahydrothiophene-2-carboxamide], the inhibition at 0.001 µM was found to be 56.5%.

On to `COc1c([C@@H]2C[C@](C)(C(F)(F)F)S[C@H]2C(=O)Nc2cnnc(N=[N+]=[N-])c2)ccc(F)c1F` [a-30-A, (2R,3S,5R)-(4-(3-(3,4-difluoro-2-methoxyphenyl)-5-methyl-5-(trifluoromethyl)tetrahydrothiophene-2-carboxamido)-6-azido)pyridazine], for which the inhibition at 0.001 µM amounted to 74.5%.

Turning to `COc1c([C@@H]2C[C@](C)(C(F)(F)F)S[C@H]2C(=O)Nc2ccc(F)c(N=[N+]=[N-])c2)ccc(F)c1F` [a-31-A, (2R,3S,5R)-N-(3-azido-4-fluorophenyl)-3-(3,4-difluoro-2-methoxyphenyl)-5-methyl-5-(trifluoromethyl)tetrahydrothiophene-2-carboxamide], the inhibition at 0.001 µM came out at 81.9%.

As to `COc1c([C@@H]2C[C@](C)(C(F)(F)F)S[C@H]2C(=O)Nc2cccc(OS(N)(=O)=O)c2)ccc(F)c1F` [a-39-A, (3-((2R,3S,5R)-3-(3,4-difluoro-2-methoxyphenyl)-5-methyl-5-(trifluoromethyl)tetrahydrothiophene-2-carboxamido)phenyl sulfamate], the inhibition at 0.001 µM came to 72%.

Staying with this test, now noted: concentration of 10 nM, read-out: Inhibition rate %.
In the case of `COc1c(C2CC(C)(C(F)(F)F)SC2C(=O)Nc2cccc(S(=O)(=O)NC#N)c2)ccc(F)c1F` (stereo not shown) [Compound a-9, N-(3-(N-cyanosulfamoyl)phenyl)-3-(3,4-difluoro-2-methoxyphenyl)-5-methyl-5-(trifluoromethyl)tetrahydrothiophene-2-carboxamide], the inhibition at 0.01 µM worked out at 85.3%.

Consider `COc1c([C@@H]2C[C@](C)(C(F)(F)F)S[C@H]2C(=O)Nc2ccc(=O)[nH]n2)ccc(F)c1F` [a-3-A, (2R,3S,5R)-3-(3,4-difluoro-2-methoxyphenyl)-5-methyl-N-(6-oxo-1,6-dihydropyridazin-3-yl)-5-(trifluoromethyl)tetrahydrothiophene-2-carboxamide], for which the inhibition at 0.01 µM turned out to be 80.2%.

As for `COc1c([C@@H]2C[C@](C)(C(F)(F)F)S[C@H]2C(=O)Nc2ccc3c(c2)B(O)OC3=O)ccc(F)c1F` [a-6-A, (2R,3S,5R)-3-(3,4-difluoro-2-methoxyphenyl)-N-(1-hydroxy-3-oxo-1,3-dihydrobenzo[c][1,2]oxaborol-6-yl)-5-methyl-5-(trifluoromethyl)tetrahydrothiophene-2-carboxamide], the inhibition at 0.01 µM stood at 76.9%.

In the case of `COc1c(C2CC(C)(C(F)(F)F)SC2C(=O)Nc2ccnc(N=S(C)(C)=O)c2)ccc(F)c1F` (stereo not shown) [a-10, 3-(3,4-difluoro-2-methoxyphenyl)-N-(2-((dimethyl(oxo)-16-sulfanylidene)amino)pyridin-4-yl)-5-methyl-5-(trifluoromethyl)tetrahydrothiophene-2-carboxamide], the inhibition at 0.01 µM was 88%.

For the molecule `COc1c(C2CC(C)(C(F)(F)F)SC2C(=O)Nc2ccnc(NO)c2)ccc(F)c1F` (stereo not shown) [a-16, (4-(3-(3,4-difluoro-2-methoxyphenyl)-5-methyl-5-(trifluoromethyl)tetrahydrothiophene-2-carboxamido)-2-hydroxylamine)pyridine], the inhibition at 0.01 µM was 92.3%.

As for `COc1c([C@@H]2C[C@](C)(C(F)(F)F)S[C@H]2C(=O)Nc2ccc(F)c(C/C(C#N)=C(\C)O)c2)ccc(F)c1F` [a-17-A, (2R,3S,5R)-N-(3-((Z)-2-cyano-3-hydroxybut-2-enyl)-4-fluorophenyl)-3-(3,4-difluoro-2-methoxyphenyl)-5-methyl-5-(trifluoromethyl)tetrahydrothiophene-2-carboxamide], the inhibition at 0.01 µM was 65.5%.

Consider `COc1c([C@@H]2C[C@](C)(C(F)(F)F)S[C@H]2C(=O)Nc2cccc(NS(N)(=O)=O)c2)ccc(F)c1F` [a-18-A, (2R,3S,5R)-3-(3,4-difluoro-2-methoxyphenyl)-5-methyl-N-(3-(sulfamoylamino)phenyl)-5-(trifluoromethyl)tetrahydrothiophene-2-carboxamide], for which the inhibition at 0.01 µM stood at 86.3%.

For `COc1c(C2CC(C)(C(F)(F)F)SC2C(=O)Nc2cccc(NS(=O)(=O)CCN)c2)ccc(F)c1F` (stereo not shown) [a-25, N-(3-((2-aminoethyl)sulfonamido)phenyl)-3-(3,4-difluoro-2-methoxyphenyl)-5-methyl-5-(trifluoromethyl)tetrahydrothiophene-2-carboxamide], the inhibition at 0.01 µM stood at 96.5%.

`COc1c([C@@H]2C[C@](C)(C(F)(F)F)S[C@H]2C(=O)Nc2ccc3c(c2)S(=O)(=O)NCN3)ccc(F)c1F` [a-26-A, (2R,3S,5R)-3-(3,4-difluoro-2-methoxyphenyl)-N-(1,1-dioxide-3,4-dihydro-2H-benzo[e][1,2,4]thiadiazin-7-yl)-5-methyl-5-(trifluoromethyl)tetrahydrothiophene-2-carboxamide]: the inhibition at 0.01 µM was 95.6%.

Turning to `COc1c(C2CC(C)(C(F)(F)F)SC2C(=O)Nc2ccc3c(c2)S(=O)(=O)N=CN3)ccc(F)c1F` (stereo not shown) [a-28-A, 7-(3-(3,4-difluoro-2-methoxyphenyl)-5-methyl-5-(trifluoromethyl)tetrahydrothiophene-2-carboxamido)-4H-benzo[e][1,2,4]thiadiazine-1,1-dioxide], the inhibition at 0.01 µM was found to be 80.6%.

As to `COc1c([C@@H]2C[C@](C)(C(F)(F)F)S[C@H]2C(=O)Nc2ccc3c(c2)S(=O)(=O)NC3=O)ccc(F)c1F` [a-36-A, (2R,3S,5R)-3-(3,4-difluoro-2-methoxyphenyl)-N-(1,1-dioxide-3-oxo-2,3-dihydrobenzo[d]isothiazol-6-yl)-5-methyl-5-(trifluoromethyl)tetrahydrothiophene-2-carboxamide], the inhibition at 0.01 µM amounted to 83.7%.
